According to a melting point compilation (Tetko et al.; mined from patent text by program, amines drawn as free bases though some values may be those of a salt):

First: O=C(O)C(=O)CC(=O)c1cccn1Cc1ccc(Cl)cc1
Second: NC1=CN(Cc2ccc(Cl)cc2)CN=C1
The melting point of the first is higher: 182 to 184 °C for the first, 128 to 129 °C for the second.

First: Cc1nn(C)cc1C(=O)NC(C#N)c1ccsc1 (centres undefined)
Second: C=C(C)C(=O)OCc1ccc(SC)cc1
The melting point of the first is higher: 113 to 114 °C for the first, 41 °C for the second.

First: NCCCCCCCCCCCCCCCCCC(=O)O
Second: CCCCCCCCCCNC(=O)c1ccc(N)cc1
The melting point of the first is higher: 162 to 163 °C for the first, 117 to 119 °C for the second.

First: COc1cc(C=C2OC(C)=CC2=O)cc(OC)c1O
Second: CCOC(=O)CCC(=O)Nc1cc(OC)c(OC)cc1C(=O)OCC
The melting point of the first is higher: 188 to 190 °C for the first, 125 °C for the second.

First: Cc1ccc2cc(C(=O)NCCSC(c3ccccc3)(c3ccccc3)c3ccccc3)[nH]c2c1NS(=O)(=O)c1cccs1
Second: CC(Sc1cc2ccccc2[nH]1)(C(=O)OCc1ccccc1)c1ccccc1 (centres undefined)
The melting point of the first is higher: 245 to 246 °C for the first, 102 to 103 °C for the second.

First: CNC(=O)N(N(CCCl)S(C)(=O)=O)S(C)(=O)=O
Second: NS(=O)(=O)OCCCCCOS(N)(=O)=O
The melting point of the first is higher: 146 to 148 °C for the first, 96.5 to 99 °C for the second.

First: CN(CCCCCCNC(=O)NCCSCc1csc(NC(=N)N)n1)CCN(Cc1ccc(F)cc1)c1ccccn1
Second: CCCCCCCCC(SCCCCCC)C(=O)Nc1c(SC)ccc2ncccc12 (centres undefined)
The melting point of the first is higher: 95 °C for the first, 91 to 92 °C for the second.

First: Nc1nc(NC2CCCCCCC2)c2ncn(C3C=CC(CO)C3)c2n1 (centres undefined)
Second: O=C(O)c1ccc(-c2cnc3[nH]c(=O)n(CC4CCCCC4)c3n2)cc1
The melting point of the first is lower: 171 to 173 °C for the first, greater than 350 °C for the second.

First: Cc1nc(-c2cccc(CN(C(=O)Nc3ccc(Br)cc3)c3ccccc3)c2)no1
Second: CN(C)Cc1ccc(-c2ccc(C(=O)c3ccc(Br)cc3)c(O)c2)cc1
The melting point of the first is higher: 145 to 146 °C for the first, 85 to 88 °C for the second.

Compared with `Cc1ccc(C)n1-c1ccc(C=CC(=O)O)cc1`, `CC(C)OC(=O)C=Cc1ccc(Br)cc1` is lower in melting point: 184 to 185 °C for the first, 64 to 66 °C for the second.

Compared with `COC(=O)Cc1ccc(OCCNC(=O)C2Cc3ccccc3N2S(=O)(=O)c2ccc(-c3cc(C)ccc3OC)cc2)cc1` (centres undefined), `COc1ccc(-c2ccc(C(=O)Nc3ccc4cc(CN5C(C)CCCC5C)ccc4c3)cc2)cc1` (centres undefined) is higher in melting point: 57 to 60 °C for the first, 199 to 200 °C for the second.

Compared with `O=[N+]([O-])c1ccc(-c2nc(-c3ccccc3)no2)o1`, `Clc1ccccc1-c1noc(-c2ccccc2Cl)n1` is lower in melting point: 164 to 166 °C for the first, 91 to 92 °C for the second.

First: CCOC(=O)c1cn(-c2ccc(F)cn2)c2nc(N3CC(C)NC(C)C3)c(F)cc2c1=O (centres undefined)
Second: CNC(=O)NCc1cccc2c1S(=O)(=O)N=C2C1=C(O)C(C(C)(C)C)N(Cc2ccc(F)cc2)C1=O (centres undefined)
The melting point of the first is lower: 165 °C for the first, greater than 250 °C for the second.

First: Cc1c(O)cccc1C(=O)N[C@@H](Cc1ccccc1)[C@H](O)C(=O)N1CSC(C)(C)[C@H]1C(=O)NCc1cccc(OC(F)(F)F)c1
Second: O=C(N[C@H](Cc1ccc(C(F)(F)F)cc1)[C@@H](O)c1ccccc1)c1ccc(F)c2ccccc12 (racemic)
The melting point of the first is lower: 102 to 105 °C for the first, 217 to 218 °C for the second.

Compared with `CN1Cc2c(C(=O)OC(C)(C)C)ncn2-c2cccnc2C1=O`, `Cc1cc(NC(=O)c2ccc(C(=O)N3CCN(c4ncccc4NC(C)C)CC3)nc2)n[nH]1` is lower in melting point: 234 to 236 °C for the first, 116 to 117 °C for the second.

First: Cc1c(O)ccc2c1OCC(c1ccc(Cl)cc1)C2 (centres undefined)
Second: O=C1Cc2ccc(-c3ccccc3)cc2O1
The melting point of the first is lower: 98 to 100 °C for the first, 109 to 110 °C for the second.

First: COc1cccc(OC)c1C(=O)P1(=O)Oc2ccccc2-c2ccccc21 (centres undefined)
Second: CCOc1cccn2nc(-c3ccccc3)c(-c3ccc(=O)n(C(C)C)n3)c12
The melting point of the first is lower: 96 to 98 °C for the first, 157 to 158 °C for the second.

First: OC1(C#Cc2cccc(Cl)c2)CCNC1 (centres undefined)
Second: OC(c1ccccc1)(c1cccc(Cl)c1)c1ncc[nH]1 (centres undefined)
The melting point of the first is lower: 153 to 160 °C for the first, 174 to 175 °C for the second.

First: CCCc1cnn2c(O)cc(CC)nc12
Second: Cc1cc(NCC(O)CO)c2ccccc2n1 (centres undefined)
The melting point of the first is higher: 279 to 281 °C for the first, 167 to 168 °C for the second.

First: O=[N+]([O-])CCc1ccc2ccccc2c1
Second: O=C(c1ccc2ccccc2c1)C(O)O
The melting point of the first is lower: 59 to 60 °C for the first, 103 to 120 °C for the second.

First: O=C1C=CC(=O)C(C(=O)CCn2sc(Cl)cc2=O)=C1
Second: O=C(NCc1nccs1)c1cc(N2CCN(Cc3ccc(F)cc3)C2=O)n[nH]1
The melting point of the first is lower: 181 to 183 °C for the first, 272 to 274 °C for the second.

First: CN1CCN(c2n[nH]c3ccccc23)CC1
Second: O=C1c2ccccc2N(N2CCCCC2)C2=NCCN12
The melting point of the first is lower: 111 to 113 °C for the first, 229 to 231 °C for the second.

Compared with `CS(=O)(=O)OC[C@@H]1NC(=O)[C@@H]1n1c(-c2ccccc2)c(-c2ccccc2)oc1=O` (relative stereo), `O=C1NC(=O)C(Cc2ccc(OCc3coc(-c4ccccc4)n3)cc2)S1` (centres undefined) is higher in melting point: 185 to 188 °C for the first, 188 to 189 °C for the second.

Compared with `BrCc1cccc2c(-c3ccccc3)onc12`, `CCCc1c(OCc2ccccc2)ccc2c(=O)ccoc12` is lower in melting point: 125 to 126 °C for the first, 87.5 to 89 °C for the second.

First: O=C(NCCCCCCNC(=O)NS(=O)(=O)c1ccc(Br)o1)NS(=O)(=O)c1ccc(Br)o1
Second: COC(=O)c1ccccc1S(=O)(=O)NC(=O)Nc1nc(C)cc(COC(C)=O)n1
The melting point of the first is lower: 98 to 99 °C for the first, 145 to 150 °C for the second.

First: O=c1c(-c2cccc(Cl)c2)c[nH]n1-c1cccc(C(F)(F)F)c1
Second: O=C(Nc1cccc(C(F)(F)F)c1)Nc1c(C(=O)O)[nH]c(=O)[nH]c1=O
The melting point of the first is lower: 190 to 192 °C for the first, greater than 300 °C for the second.

First: COC(=O)C(C)(C)CCCOc1c(C)cc(OC(=O)C(C)(C)C)c(C)c1C
Second: CCOC(=O)C(Cc1ccc(N)s1)NC(=O)OC(C)(C)C (racemic)
The melting point of the first is lower: 46 to 47 °C for the first, 132 °C for the second.

First: O=C1c2ccc3c4cccc5cccc(c6ccc(c2c36)C(=O)N1C1CCCCCCCCCCC1)c54
Second: COc1cccc2c(CCC3CC(=O)CCC3=O)cccc12 (centres undefined)
The melting point of the first is higher: 285 °C for the first, 94 to 100 °C for the second.

Compared with `CC1(C)CCC(C)(C)c2cc(C=O)c(C#C[Si](C)(C)C)cc21`, `COc1ccc(-c2c(Cl)c(CN3C(=O)CCC3=O)nc3sc4c(c23)CC(C)(C)C(=O)C4)cc1` is higher in melting point: 78.4 to 82 °C for the first, 222 to 224 °C for the second.

Compared with `Cc1cnc(CCCCNc2ncc(Cc3ccc(C)nc3)c(=O)[nH]2)c(Cl)c1`, `CCc1c(C)[nH]c(=O)c(N)c1Cc1cc(C)cc(C)c1` is higher in melting point: 140 to 142 °C for the first, 204 to 205 °C for the second.

Compared with `COc1ccc(CN2CCc3ncccc3C2)cc1OC`, `COC(=O)CC1CCc2ccc(OCc3ccc(C#N)cc3)cc2C1` (centres undefined) is higher in melting point: 76 to 77 °C for the first, 120 to 122 °C for the second.

First: COC(=O)c1cncs1
Second: COC(=O)c1ccc(CCc2ccncc2)cc1
The melting point of the first is higher: 68 °C for the first, 62 to 64 °C for the second.

First: CC(NC(=O)c1cccc(I)c1)C(O)c1ccccc1 (centres undefined)
Second: CC(=O)SCC(Cc1ccccc1)C(=O)Nc1cc(C(=O)O)cc(C(C)C)c1 (centres undefined)
The melting point of the first is lower: 139 to 140 °C for the first, 205 to 206 °C for the second.

Compared with `CCOC(=O)c1ccc(CNC(=O)CI)cc1O`, `COc1cccc(OCCCCC(=O)O)c1C=O` is lower in melting point: 105 to 108 °C for the first, 99 to 101 °C for the second.

First: O=c1[nH]c2c(c(=O)n1CCCN1CCN(c3ccccc3OCC(F)(F)F)CC1)CCCC2
Second: O=C1N(CC2CCCCO2)c2ccccc2C12COc1cc3c(cc12)OCCO3 (centres undefined)
The melting point of the first is lower: 148 to 150 °C for the first, 158 to 166 °C for the second.

Compared with `CNC(=O)NC(=O)/C(=C/C(C)C)c1ccc(Cl)c(Cl)c1`, `C/C(=C\c1ccc(OC(C)C)cc1Oc1ncc(C(F)(F)F)cc1Cl)C(=O)NS(=O)(=O)NCCc1ccccn1` is lower in melting point: 177 to 178 °C for the first, 121 to 123 °C for the second.

First: c1coc(CCCCCCOc2ccc(C3=NCCO3)cc2)c1
Second: CCCCOCCOc1ccc(-c2ccc3c(c2)C=C(C(=O)Nc2ccc(S(=O)CCn4cnnc4)cc2)CCN3CC(C)C)cc1 (centres undefined)
The melting point of the first is lower: 74 °C for the first, 168 to 170 °C for the second.

Compared with `CC(=O)OCCSc1nc(C(C)(C)C)n[nH]1`, `CC(C)(C)c1nc(-c2ccc(F)cc2)c(-c2ccc(S(C)(=O)=O)cc2)s1` is higher in melting point: 114 to 115 °C for the first, 144 to 145 °C for the second.

First: Clc1ccc(OCc2ccccc2)nn1
Second: c1ccc(CSc2nc3cnccn3n2)cc1
The melting point of the first is lower: 77 to 78 °C for the first, 93 to 94 °C for the second.

First: COc1ccc(-c2nc(N)ncc2-c2ccc(=O)n(C)n2)cc1F
Second: CS(=O)c1ccc(-c2nn(Cc3ccc(Cl)cc3Cl)c(=O)cc2-c2ccc(F)cc2)cc1 (centres undefined)
The melting point of the first is higher: 245 °C for the first, 214 °C for the second.

Compared with `CC(CN1CCCC1)N1c2ccccc2Sc2ccc(C(=O)NCc3cccc(F)c3)cc21` (racemic), `CS(=O)(=O)c1cccc(Nc2cc(-c3ccccc3O)ncn2)c1` is higher in melting point: 165 °C for the first, 214 to 216 °C for the second.

First: COc1c2c(cc3ccc(=O)oc13)CC(C)O2 (centres undefined)
Second: COc1ccc2c3c1OC1C(=O)C=CC4C(C2)N(C)CCC314 (centres undefined)
The melting point of the first is lower: 115 to 116 °C for the first, 177 to 180 °C for the second.

First: O=C1COc2ccc(Br)cc2C(=O)C1
Second: CN1CC=C(c2c[nH]c3c(Cl)c(Cl)ccc23)CC1
The melting point of the first is lower: 110 to 112 °C for the first, 246 to 249 °C for the second.

First: CC(C)c1nn2ccccc2c1C=O
Second: Cc1nnc(-c2ccccn2)[nH]c1=O
The melting point of the first is lower: 81 to 81.5 °C for the first, 299 to 300 °C for the second.

First: Cc1ccc2c(C(=O)NC3CN4CCC3CC4)cnn2c1 (centres undefined)
Second: CON1C=C2N=NC3=C(N2C1)N(c1cccc(Cl)c1)CC(C1CC1)=C3
The melting point of the first is lower: 142 to 144 °C for the first, 155 °C for the second.

First: N#CC(F)(F)C(F)(F)C(F)(F)C(F)(F)C#N
Second: CC#Cc1c(C#N)nn(-c2c(Cl)cc(C(F)(F)F)cc2Cl)c1N
The melting point of the first is lower: 132 °C for the first, 226 to 228 °C for the second.

Compared with `CC(=O)NNC1=Nc2sc(Cl)cc2C(c2ccccc2F)=NC1`, `O=[N+]([O-])c1ccc(-n2cnc(CO)c2)c(F)c1` is lower in melting point: 207 to 209 °C for the first, 157 to 159 °C for the second.

Compared with `O=NN1CCCSc2ccccc21`, `Cc1cc([N+](=O)[O-])ccc1OC12CC3CC(CC(C3)C1)C2` is higher in melting point: 85 to 86 °C for the first, 89.5 to 91 °C for the second.

Compared with `C(=C\c1cc(/C=C/c2ccc3cc[nH]c3c2)n[nH]1)/c1ccc(Oc2ccccc2)cc1`, `O=C(O)/C=C\C(=O)N1CCc2cc(S(=O)(=O)N3CCN(c4cccc(Cl)c4)CC3)ccc21` is higher in melting point: 175 to 182 °C for the first, 191 to 192 °C for the second.

First: Cc1ccc(-c2nccc(C)n2)cc1
Second: CC1CN(c2ccc(F)cc2)N=C1NC=O (centres undefined)
The melting point of the first is lower: 80 to 81 °C for the first, 166 to 168 °C for the second.

First: CC(=NS(=O)(=O)C=Cc1c(Cl)cccc1Cl)NC1CC1
Second: COc1cc(C(O)c2ccc(C(=O)N(C(C)C)C3CCCCC3)cc2)cc(OC)c1OC (centres undefined)
The melting point of the first is lower: 121 to 124 °C for the first, 158 to 160 °C for the second.

Compared with `CCC(=O)c1c(C#N)nn(-c2c(Cl)cc(C(F)(F)F)cc2Cl)c1N`, `CC(=O)SC[C@H]1CCCCCC[C@H](C(=O)O)NC1=O` (relative stereo) is lower in melting point: 167 to 169 °C for the first, 144 to 145 °C for the second.
